Reference: patent publication US8748601B2, “Selective serine/threonine kinase inhibitors” (The Regents of the University of California, priority 2003, dated 2014)
Each block holds one compound with its values, some of them ahead of it.

Legend:
[1] = tested on: Rsk; assay: Rsk autophosphorylation of Ser381 in Swiss 3T3 cells (Western blot); format: cell-based; conditions: 5 μM, 1 hour, growth factors 10 min
Description: (§1) Enoate 2 blocks Rsk autophosphorylation of Ser381, which is catalyzed by its cysteine-containing C-terminal kinase domain. […] Swiss 3T3 cells were serum starved for 24 hours and treated with 5 μM enoate or 0.1% DMSO (control) for 1 hour. The cells were then stimulated with growth factors for 10 min. and lysed with 1×SDS-PAGE sample buffer. Proteins were separated by SDS-PAGE and transferred to nitrocellulose membranes for Western blot analysis. Phosphorylation-specific antibodies against Rsk and Erk were purchased from Cell Signaling. Antibodies against nonphosphorylated Rsk and Erk were purchased from Santa Cruz Biotech and Cell Signaling, respectively. (FIG. 4.)

[2] = tested on: Rsk2; assay: Labeling by biotin-1 / bodipy-1 in Xenopus egg cytosol and competition by unlabeled compound; format: binding; conditions: for Labeling of 90 kD protein by bodipy-1 after pretreatment: pretreatment with 1 μM
Description: To test whether compounds 1 and 2 (Formula IA, chloromethyl ketone and methyl enoate respectively) bind selectively and irreversibly to Rsk2, compound 1 was labeled with biotin. Xenopus egg cytosol was treated with 1 μM biotin-1. A major biotinylated 90 kD protein was detected by immunoblot analysis with streptavidin-HRP. Labeling of p90 with biotin-1 was abolished by pretreatment of the cytosol 1 μM of unlabeled 1. Thus, p90 is completely saturated by 1 at a concentration of 1 μM.
Labeling was abolished by pretreatment with 1 μM of 1 or 2.

[3] = tested on: Erk; assay: Erk phosphorylation in Swiss 3T3 cells (Western blot); format: cell-based; conditions: 5 μM, 1 hour, growth factors 10 min
Description: as §1

[4] = tested on: animal carcinoma model; conditions: compared with reversible quinazoline inhibitors; cited from earlier work
[5] = tested on: wt v-Src; assay: Covalent labeling by biotin-cmk in NIH3T3 fibroblasts expressing wt v-Src; format: cell-based; conditions: biotin-cmk 2 μM, whole cell lysates
From the text: (§2) To test whether cmk 4 could covalently label and inhibit Src kinases in vivo, we generated NIH3T3 fibroblast cell lines that stably overexpress either a wt v-Src allele or an electrophile-sensitive mutant, V281C v-Src (v-Src-es1). v-Src is constitutively active, and as a result of its expression in these cells, there is a substantial increase in phosphotyrosine levels. […] To test whether cmk 4 forms an irreversible, covalent bond with V281C v-Src, we conjugated biotin to the hydroxypropyl substituent. This point of attachment was chosen based on the model of cmk 4 bound to Hck in which the hydroxypropyl substituent is pointing out into solution.
(§3) NIH3T3 fibroblasts expressing either v-Src-es1 or v-Src were pretreated with increasing concentrations of cmk 4. Whole cells lysates were then prepared and treated with biotin-cmk (2 μM).

[6] = tested on: V281C v-Src (v-Src-es1); assay: Covalent labeling by biotin-cmk in NIH3T3 fibroblasts expressing v-Src-es1; format: cell-based; conditions: biotin-cmk 2 μM, whole cell lysates
From the text: as §2, §3

[7] = tested on: wt v-Src; assay: Global phosphotyrosine levels in NIH3T3 cells expressing wt v-Src; format: cell-based
From the text: (§4) We also investigated whether cmk 4 could block the function of v-Src-es1 in mammalian cells by monitoring global phosphotyrosine levels in cells expressing either wt v-Src or v-Src-es1.

[8] = biological target: Val285Cys Fyn (Homo sapiens, UniProt P06241, V285C); assay: Inactivation of engineered Val285Cys Fyn; format: biochemical
[9] = tested on: NIH3T3 cells expressing wt v-Src; assay: Reversion of transformed morphology in cells expressing wt v-Src; format: cell-based; conditions: 1 μM, 16 h
From the text: (§5) Overexpression of v-Src in NIH3T3 fibroblasts causes morphological transformation. Nontransformed NIH3T3 cells have a flat morphology, characterized by long bundles of filamentous actin (“stress fibers”) that can be visualized by fluorescence microscopy. In contrast, NIH3T3 cells overexpressing wt v-Src or v-Src-es1 have a disorganized actin cytoskeleton that results in a round morphology. […] Under the same conditions, cells expressing wt v-Src are not affected by cmk 4 and maintain a round morphology (FIG. 8A). The effects of cmk 4 on cell morphology were quantified by counting 100-200 cells under each treatment condition for both wt v-Src and v-Src-es1. Approximately 80% of the cells expressing v-Src-es1 regain a flattened morphology upon treatment with 1 μM cmk 4, whereas less than 2% of cells expressing wt v-Src have actin stress fibers (FIG. 8B).

[10] = tested on: NIH3T3 cells expressing v-Src-es1; assay: Reversion of transformed morphology in cells expressing v-Src-es1; format: cell-based; conditions: 1 μM, 16 h
From the text: as §5

[11] = biological target: T1, Rsk2 CTD (Homo sapiens, UniProt P51812); assay: Rsk2 CTD in vitro kinase assay, wild type; format: biochemical
T1 construct: We tested the halomethylketones against the Rsk2 CTD by adapting an in vitro kinase assay; made in house
From the text: (§6) We tested the halomethylketones against the Rsk2 CTD by adapting an in vitro kinase assay developed by Chrestensen and Sturgill, J, Biol. Chem. 277:27733 (2002).

[12] = biological target: wt Fyn (Homo sapiens, UniProt P06241); assay: wt Fyn kinase activity in vitro; conditions: 30 nM
[13] = biological target: T2, V281C v-Src (v-Src-es1) (UniProt P00524, V281C, species not given); assay: Covalent labeling by biotin-cmk in NIH3T3 fibroblasts expressing v-Src-es1; format: cell-based
T2 construct: other: pretreatment of intact cells; lysates treated with biotin; Labeling of v-Src-es1 by biotin-cmk after pretreatment; other: pretreatment of intact cells with 1 μM
From the text: as §2, §3

[14] = tested on: v-Src-es1; assay: Global phosphotyrosine levels in NIH3T3 cells expressing v-Src-es1; format: cell-based
From the text: as §4

[15] = Chemical stability; format: physicochemical; conditions: compared with cmk 4
[16] = biological target: Rsk2 (Homo sapiens, UniProt P51812); assay: Suppression of labeling by biotinylated fmk in human epithelial cell lysate, Rsk2; format: binding; conditions: pretreatment with unlabeled compound
From the text: A major concern with any pharmacological agent is its selectivity, not only among related family members, but among all other coexpressed proteins.

[17] = tested on: Erk1/2; assay: EGF-stimulated Erk1/2 phosphorylation (Thr202, Tyr204) in COS-7 cells; format: cell-based; conditions: 10 μM
From the text: (§7) The only known Rsk2 CTD substrate is an autophosphorylation site, Ser386, in the linker region connecting the NTD and CTD. Phosphorylation of Ser386 creates a docking site for another kinase, phosphoinositide-dependent kinase 1 (PDK1), which phosphorylates and activates the NTD. […] The signaling pathway between EGF and Erk1/2 involves at least three protein kinases (EGFR, Raf, and MEK), two of which (EGFR and Raf) have threonine gatekeepers and cysteines in their ATP binding pockets (albeit at different locations relative to Rsk2 Cys436).

[18] = biological target: T3, Rsk2 CTD Thr493Met (Homo sapiens, UniProt P51812, T493M); assay: Rsk2 CTD in vitro kinase assay, Thr493Met mutant; format: biochemical
T3 construct: we expressed and purified two CTD mutants, Cys436Val and Thr493Met; made in house
From the text: as §6

[19] = biological target: T4, Rsk2 CTD Cys436Val (Homo sapiens, UniProt P51812, C436V); assay: Rsk2 CTD in vitro kinase assay, Cys436Val mutant; format: biochemical
T4 construct: we expressed and purified two CTD mutants, Cys436Val and Thr493Met; made in house
From the text: as §6

[20] = biological target: Rsk2 CTD (Chlorocebus sabaeus, UniProt A0A0D9RPY4); assay: EGF-stimulated Ser386 phosphorylation in COS-7 cells; format: cell-based; conditions: read-out: Reduction of Ser386 phosphorylation
From the text: as §7

[21] = biological target: T5, Rsk1 (Homo sapiens, UniProt Q15418); assay: Suppression of labeling by biotinylated fmk in human epithelial cell lysate, Rsk1; format: binding; conditions: pretreatment with unlabeled compound
T5 construct: a crude lysate prepared from human epithelial cells; endogenous in cells
From the text: A major concern with any pharmacological agent is its selectivity, not only among related family members, but among all other coexpressed proteins. To determine the global kinetic selectivity of fmk 5, we added a biotinylated derivative to a crude lysate prepared from human epithelial cells. Only two proteins in the lysate were labeled. […] Affinity purified antibodies raised against a Rsk1 peptide specifically immunoprecipitated the lower band, whereas a Rsk2 monoclonal antibody was specific for the upper band. Both proteins remained in the supernatant when a control rabbit IgG was used.

Compound: C=CC(=O)Nc1ccc2ncnc(Nc3cccc(Br)c3)c2c1 [PD 168393]
Efficacy in an animal carcinoma model [4]: far superior to reversible quinazoline inhibitors

Compound: Cc1ccc(-c2c(C(=O)CCl)n(CCCOC(=O)NCCCCNC(=O)CCCCC3SCC4NC(=O)NC43)c3ncnc(N)c23)cc1 (stereo not drawn) [biotin-cmk]
Covalent labeling of wt v-Src [5]: absence of covalent labeling
Covalent labeling of v-Src-es1 [6]: covalently targeted v-Src-es1

Compound: Cc1ccc(-c2c(C(=O)CCl)n(CCCO)c3ncnc(N)c23)cc1 [cmk 4]
Phosphotyrosine in cells overexpressing wt v-Src ([7]; 1 μM): no apparent effect
Effect on wt v-Src in mammalian cells ([7]; summary statement): no effect
Fold more potent than fmk 5 toward Val285Cys Fyn [8]: 100 fold
Inactivation of engineered Fyn with cysteine in place of Val285 ([8]; 30 nM): rapidly inactivated
Time to inactivate Val285Cys Fyn ([8]; 100 nM, 1 mM ATP): less than 5 min
Cells expressing wt v-Src that have actin stress fibers [9]: less than 2%
Morphology of cells expressing wt v-Src [9]: not affected
Cells expressing v-Src-es1 that regain a flattened morphology [10]: Approximately 80%
Transformed morphology of cells expressing v-Src-es1 ([10]; FITC-phallodin staining): caused reversion of the transformed morphology
Inhibition of kinase activity of Rsk2 CTD [11]: potently inhibited
Concentration at which p90 is completely saturated ([2]; Xenopus egg cytosol): 1 µM
Labeling of p90 with biotin-1 after pretreatment with unlabeled compound ([2]; pretreatment of the cytosol 1 μM, streptavidin-HRP immunoblot): abolished
Labeling of 90 kD protein by bodipy-1 after pretreatment [2]: abolished
Effect on wild-type (WT) Fyn [12]: no effect
Labeling of v-Src-es1 by biotin-cmk after pretreatment ([13]; pretreatment of intact cells with 1 μM): abolished
IC50 ([13]; read-out: IC50 for blocking labeling of v-Src-es1 by biotin-cmk, pretreatment of intact cells, lysates treated with biotin-cmk 2 μM): < 100 nM
Detectable phosphotyrosine in cells overexpressing v-Src-es1 ([14]; 1 μM): near-complete reduction
Tyrosine phosphorylation in cells overexpressing v-Src-es1 ([14]; increasing concentrations): dose-dependent decrease
Function of mutant v-Src in mammalian cells ([14]; summary statement): irreversibly blocked the function

Further lines, with some results ahead:

Labeling of 90 kD protein by bodipy-1 after pretreatment [2]: abolished
Compound: COC(=O)/C=C/c1c(-c2ccc(C)cc2)c2c(N)ncnc2n1CCCO [Compound 2]
Rsk autophosphorylation of Ser381 [1]: blocks
Erk phosphorylation [3]: does not block

Chemical stability [15]: greater chemical stability
Concentration for complete saturation of Rsk2 [16]: 1 µM
Inhibition of kinase activity of Rsk2 CTD [11]: potently inhibited
Half-time of inactivation of Rsk2 CTD ([11]; 1 μM, 1 mM ATP): less than 10 min
inhibition at 3 µM [20]: 95%
Concentration for complete saturation of Rsk1 [21]: 0.3 µM
Compound: Cc1ccc(-c2c(C(=O)CF)n(CCCO)c3ncnc(N)c23)cc1 [fmk 5]
EGF-stimulated phosphorylation of Erk1/2 Thr202 and Tyr204 [17]: no effect
Inhibition and covalent modification of Thr493Met mutant [18]: resistant to inhibition and covalent modification
Inhibition and covalent modification of Cys436Val mutant [19]: resistant to inhibition and covalent modification

IC50 ([18]; Rsk2 CTD mutant, read-out: IC50 values, T439M): > 30000 nM
Fold weaker than fmk 5 toward WT Rsk2 [11]: 80 fold
IC50 ([11]; Rsk2 CTD WT, read-out: IC50 values, WT): 1200 ± 80 nM
Potency relative to fmk 5 against the Cys436Val mutant [19]: much more potent than fmk 5
IC50 ([19]; Rsk2 CTD C436V): 430 ± 140 nM
Compound: Cc1ccc(-c2cn(CCCO)c3ncnc(N)c23)cc1 [scaffold A]
